Laboratory results: patent US11497212B2, “Substituted thiophenyl uracils, salts thereof and the use thereof as herbicidal agents” (Syngenta Crop Protection AG, priority 2017, dated 2022)

Assays:
Format in all cases: in vivo
[1] = test system: Abutilon theophrasti; assay: Herbicidal action post-emergence (greenhouse pot trial); conditions: application rate 80 g/ha, scored visually after about 3 weeks vs untreated controls
Outline: (§1)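 One-leaf-stage seedlings, 2–3 weeks old, are treated on their green parts with an aqueous emulsion or suspension of the test compound (WP or EC, 0.5% additive) using 600 L/ha of water at up to 80 g/ha. About 3 weeks on, percent kill is estimated visually versus untreated plants.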

[2] = test system: Alopecurus myosuroides; assay: as above; conditions: application rate 80 g/ha, scored visually after about 3 weeks vs untreated controls
Outline: as §1

[3] = test system: Amaranthus retroflexus; assay: as above; conditions: application rate 80 g/ha, scored visually after about 3 weeks vs untreated controls
Outline: as §1

[4] = test system: Matricaria inodora; assay: as above; conditions: application rate 80 g/ha, scored visually after about 3 weeks vs untreated controls
Outline: as §1

[5] = test system: Pharbitis purpurea; assay: as above; conditions: application rate 80 g/ha
Outline: as §1

[6] = test system: Polygonum convolvulus; assay: as above; conditions: application rate 80 g/ha, scored visually after about 3 weeks vs untreated controls
Outline: as §1

[7] = test system: Setaria viridis; assay: as above; conditions: application rate 80 g/ha, scored visually after about 3 weeks vs untreated controls
Outline: as §1

[8] = test system: Stellaria media; assay: as above; conditions: application rate 80 g/ha, scored visually after about 3 weeks vs untreated controls
Outline: as §1

[9] = test system: Veronica persica; assay: as above; conditions: application rate 80 g/ha
Outline: as §1

[10] = test system: Viola tricolor; assay: as above; conditions: application rate 80 g/ha
Outline: as §1

[11] = test system: Oryza sativa; assay: Crop compatibility post-emergence (greenhouse pot trial); conditions: application rate 20 g/ha
Outline: (§2)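 Visual % damage vs untreated controls, ~3 wk post-spray (100% = plants died, 0% = as control). Plants in sandy loam, greenhouse, sprayed at one-leaf stage (2–3 wk after sowing); WP/EC in water + 0.5% additive, 600 L/ha.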

[12] = test system: Triticum aestivum; assay: as above; conditions: application rate 20 g/ha
Outline: as §2

[13] = test system: Zea mays; assay: as above
Outline: as §2

[14] = test system: Abutilon theophrasti; assay: Herbicidal action pre-emergence (greenhouse pot trial); conditions: application rate 320 g/ha, scored after about 3 weeks
Outline: (§3)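 Efficacy (%) was estimated visually about 3 wk post-application by comparing treated pots with untreated controls, where 0% denotes plants resembling controls and 100% denotes dead plants. Dose was 320 g/ha or less.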

[15] = test system: Alopecurus myosuroides; assay: as above; conditions: application rate 320 g/ha, scored after about 3 weeks
Outline: as §3

[16] = test system: Amaranthus retroflexus; assay: as above; conditions: application rate 320 g/ha, scored after about 3 weeks
Outline: as §3

[17] = test system: Avena fatua; assay: as above; conditions: application rate 320 g/ha
Outline: as §3

[18] = test system: Cyperus esculentus; assay: as above; conditions: application rate 320 g/ha
Outline: as §3

[19] = test system: Echinochloa crus-galli; assay: as above; conditions: application rate 320 g/ha, scored after about 3 weeks
Outline: as §3

[20] = test system: Hordeum murinum; assay: as above; conditions: application rate 320 g/ha
Outline: as §3

[21] = test system: Lolium rigidum; assay: as above; conditions: application rate 320 g/ha
Outline: as §3

[22] = test system: Matricaria inodora; assay: as above; conditions: application rate 320 g/ha, scored after about 3 weeks
Outline: as §3

[23] = test system: Pharbitis purpurea; assay: as above; conditions: application rate 320 g/ha
Outline: as §3

[24] = test system: Setaria viridis; assay: as above; conditions: application rate 320 g/ha, scored after about 3 weeks
Outline: as §3

[25] = test system: Stellaria media; assay: as above; conditions: application rate 320 g/ha, scored after about 3 weeks
Outline: as §3

[26] = test system: Veronica persica; assay: as above; conditions: application rate 320 g/ha
Outline: as §3

[27] = test system: Viola tricolor; assay: as above; conditions: application rate 320 g/ha, scored after about 3 weeks
Outline: as §3

[28] = test system: Glycine max; assay: Crop compatibility pre-emergence (greenhouse pot trial); conditions: application rate 20 g/ha, effect vs untreated controls
Outline: (§4)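 After soil-surface application of each compound to freshly sown pots (aqueous spray, 600 L/ha, 0.5% additive), plants grew under greenhouse conditions. Around 3 weeks later, injury was estimated visually on a 0–100% scale against controls.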

[29] = test system: Oryza sativa; assay: as above; conditions: application rate 20 g/ha, effect vs untreated controls
Outline: as §4

[30] = test system: Zea mays; assay: as above; conditions: application rate 20 g/ha, effect vs untreated controls
Outline: as §4

[31] = test system: Echinochloa crus-galli; assay: Herbicidal action post-emergence (greenhouse pot trial); conditions: application rate 80 g/ha, scored visually after about 3 weeks vs untreated controls
Outline: as §1

[32] = test system: Lolium rigidum; assay: as above; conditions: application rate 80 g/ha, scored visually after about 3 weeks vs untreated controls
Outline: as §1

[33] = test system: Glycine max; assay: Crop compatibility post-emergence (greenhouse pot trial); conditions: application rate 5 g/ha
Outline: as §2

| Structure (SMILES) | Abutilon theophrasti (Efficacy in %) [1] | Alopecurus myosuroides (Efficacy in %) [2] | Amaranthus retroflexus (Efficacy in %) [3] | Matricaria inodora (Efficacy in %) [4] | Pharbitis purpurea (Efficacy in %) [5] | Polygonum convolvulus (Efficacy in %) [6] | Setaria viridis (Efficacy in %) [7] | Stellaria media (Efficacy in %) [8] | Veronica persica (Efficacy in %) [9] | Viola tricolor (Efficacy in %) [10] | Oryza sativa (Efficacy in %) [11] | Triticum aestivum (Efficacy in %) [12] | Abutilon theophrasti (Efficacy in %) [14] | Alopecurus myosuroides (Efficacy in %) [15] | Amaranthus retroflexus (Efficacy in %) [16] | Avena fatua (Efficacy in %) [17] | Cyperus esculentus (Efficacy in %) [18] | Echinochloa crus-galli (Efficacy in %) [19] | Hordeum murinum (Efficacy in %) [20] | Lolium rigidum (Efficacy in %) [21] | also measured |
| --- | --- | --- | --- | --- | --- | --- | --- | --- | --- | --- | --- | --- | --- | --- | --- | --- | --- | --- | --- | --- | --- |
| CC(Sc1cc(-n2c(=O)cc(C(F)(F)F)n(C)c2=O)c(F)cc1Cl)C(=O)NCC1(C)CCCO1 (stereo not drawn) [I.1-224] | 100% | 80% | 100% | 100% | 100% | 100% | 100% | 80% | 100% | 100% | 10% | 20% | 100% | 100% | 100% | 100% | 90% | 100% | 100% | 100% | Zea mays (Efficacy in %) ([13]; application rate 80 g/ha): 20%; Matricaria inodora (Efficacy in %) [22]: 100%; Pharbitis purpurea (Efficacy in %) [23]: 100%; Setaria viridis (Efficacy in %) [24]: 100%; Stellaria media (Efficacy in %) [25]: 100%; Veronica persica (Efficacy in %) [26]: 100%; Viola tricolor (Efficacy in %) [27]: 100%; Glycine max (Efficacy in %) [28]: 0%; Oryza sativa (Efficacy in %) [29]: 0%; Zea mays (Efficacy in %) [30]: 0% |
| CC(Sc1cc(-n2c(=O)cc(C(F)(F)F)n(C)c2=O)c(F)cc1Cl)C(=O)NCC1CCCO1 (stereo not drawn) [I.1-271] | 100% | 100% | 100% | 100% | 100% | 100% | 100% | 100% | 100% | 100% | 10% | 20% | 100% | 100% | 100% | 100% | 80% | 100% | 100% | 100% | Echinochloa crus-galli (Efficacy in %) [31]: 90%; Lolium rigidum (Efficacy in %) [32]: 100%; Glycine max (Efficacy in %) [33]: 20%; Zea mays (Efficacy in %) ([13]; application rate 20 g/ha): 10%; Matricaria inodora (Efficacy in %) [22]: 100%; Pharbitis purpurea (Efficacy in %) [23]: 100%; Setaria viridis (Efficacy in %) [24]: 100%; Stellaria media (Efficacy in %) [25]: 100%; Veronica persica (Efficacy in %) [26]: 100%; Viola tricolor (Efficacy in %) [27]: 100%; Glycine max (Efficacy in %) [28]: 10%; Oryza sativa (Efficacy in %) [29]: 20%; Zea mays (Efficacy in %) [30]: 0% |
